# Results published in article PMC4039107, “Spores of Clostridium engineered for clinical efficacy and safety cause regression and cure of tumors in vivo” (Oncotarget, 2014).
# Like-named read-outs stand apart in the source and are kept apart here.
# Legend:
# Assay type in all cases: biochemical
# [1] = biological target: T1, HsoNTR (Histophilus somni, UniProt A0A9Q6YZG6); test: HPLC CB1954 nitroreductase assay
# T1 construct: gene JFL49_05940
# Text: HPLC CB1954 nitroreductase assay on HsoNTR
# [2] = biological target: T2, NmeNTR (Neisseria meningitidis, UniProt Q9K022); test: HPLC CB1954 nitroreductase assay
# T2 construct: gene NMB0804
# T2 sequence (Q9K022 entry or part of it): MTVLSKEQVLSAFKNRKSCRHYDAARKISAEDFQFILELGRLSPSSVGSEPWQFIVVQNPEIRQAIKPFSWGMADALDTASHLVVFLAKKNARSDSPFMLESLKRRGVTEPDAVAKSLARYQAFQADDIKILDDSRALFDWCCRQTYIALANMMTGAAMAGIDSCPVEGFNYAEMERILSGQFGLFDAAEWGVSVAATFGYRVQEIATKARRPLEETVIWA
# Text: HPLC CB1954 nitroreductase assay on NmeNTR
# [3] = biological target: T3, NfnB (Escherichia coli, UniProt P38489); test: menadione reductase activity of C. sporogenes E1 lysate; conditions: background of endogenous quinone reductases in wild type and pyrE mutant controls
# T3 construct: gene nfsB; untagged as far as told; expressed from fdx promoter at pyrE locus of C. sporogenes strain E1; cell lysate
# T3 sequence (P38489 1-217): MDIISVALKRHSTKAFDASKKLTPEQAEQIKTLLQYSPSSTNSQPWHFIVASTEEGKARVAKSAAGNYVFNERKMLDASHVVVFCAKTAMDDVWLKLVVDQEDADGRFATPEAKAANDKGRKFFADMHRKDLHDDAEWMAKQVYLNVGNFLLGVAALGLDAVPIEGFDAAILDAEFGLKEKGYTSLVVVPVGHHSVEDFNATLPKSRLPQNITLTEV
# [4] = kcat is with NADH as co-substrate, read-out: Km ^CB1954
# [5] = co-substrate CB1954, read-out: Km ^NADH
# T1 sequence (A0A9Q6YZG6 entry or part of it): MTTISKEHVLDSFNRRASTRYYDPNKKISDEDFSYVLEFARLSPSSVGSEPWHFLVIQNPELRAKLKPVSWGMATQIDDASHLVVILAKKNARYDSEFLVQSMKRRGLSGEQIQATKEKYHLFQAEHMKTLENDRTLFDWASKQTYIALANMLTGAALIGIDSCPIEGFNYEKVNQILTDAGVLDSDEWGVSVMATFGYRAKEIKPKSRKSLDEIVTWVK
smiles,measurement,setting,value
"NC(=O)c1cc(N2CC2)c([N+](=O)[O-])cc1[N+](=O)[O-] [CB1954, 5-(aziridin-1-yl)-2,4-dinitrobenzamide]",Km,[1]; [4],22 µM
same,Km,[2]; [4],2.47 µM
NC(=O)C1=CN([C@@H]2O[C@H](COP(=O)(O)OP(=O)(O)OC[C@H]3O[C@@H](n4cnc5c(N)ncnc54)[C@H](O)[C@@H]3O)[C@@H](O)[C@H]2O)C=CC1 [NADH],Km,[1]; [5],644 µM
same,Km,[2]; [5],188 µM
CC1=CC(=O)c2ccccc2C1=O [menadione],specific menadione reductase activity,[3],both E1 and N1 contained menadione reductase activity elevated significantly above the endogenous levels
